Measured values from US11123355B2, “Antiviral benzyl-amine phosphodiamide compounds” (Merck Sharp & Dohme Corp., priority 2016, dated 2021).
Read-outs that look alike come from different tables or passages of the source.

How the values were obtained:
HIV-1 (H9/IIB strain) = experiment: Multiple Round HIV-1 Infection Assay (Viking Assay) in MT4-GFP cells; assay type: cell-based; settings: inhibition of reproductive ratio R0
Summary of the method: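 MT-4 cells with tat/rev-dependent GFP reporter infected overnight with virus at MOI ~0.01, then incubated in RPMI with 10% or 50% normal human serum with 10-point 3-fold dilutions (typically 8.4 μM–0.42 nM final). Green cells counted at ~48 and ~72 h to give R0; IC50 from 4-parameter fit of R0 inhibition.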

[1] = Prodrug Stability Assay in Bio-Relevant Media (FaSSIF with Pancreatin); assay type: in vitro ADME; settings: 0.5 mg/mL Pancreatin in FaSSIF, 37° C.; HPLC peak area of prodrug at 5 h divided by that at 0 h
Experimental: Prodrug Stability Assay in Bio-Relevant Media
The following assay was employed to evaluate the stability of the prodrugs in simulated gastrointestinal tract conditions. Preparation of fasted state simulated intestinal fluid (FaSSIF) using Phares SIF Powder was carried out according to protocols from Phare Drug Delivery AG (Baselland, Switzerland). For sample preparation, 10 μL stock solutions (10 mM) of prodrug substance in DMSO was added to 990 μL of 0.5 mg/mL Pancreatin solution (Fisher CAS #8049-47-6) in FaSSIF. Two samples were prepared for each compound. If the sample was a clear solution, it was directly analyzed by HPLC. If the sample was not clear, the sample was diluted with 100% MeCN, maintained at 37° C. and observed 5 h later. If the sample was clear, HPLC analysis was directly performed. If the sample was still not clear, the sample was diluted with 100% ACN and assayed by HPLC. All the samples were vortexed for 3 min and observed before injection. For the diluted samples, the area is multiplied by a dilution factor when the data is analyzed. The analysis was carried out with an Agilent 1100 series HPLC with autosampler. The column was a Poroshell 120 EC-C18, 4.6×50 mm, 2.7 μm. The flow rate was 1.8 mL/min, and the injection volume was 5 or 10 μL. UV detection was in the range 210-400 nm. The mobile phase consisted of solvent A (water plus 10 mM tetrabutylammonium bromide) and solvent B (acetonitrile) with a gradient of: 90% solvent A at 0 min, changing to 95% solvent B over 6 min, maintaining for 1.5 min, then reverting to 90% solvent A over 1.6 min. The HPLC peak area of the prodrug at 5 h was divided by the HPLC peak area of the prodrug at 0 h, to generate the % claimed parent ratio, which is summarized in Table 2 for gastrointestinal (GI) Tract stability.

[2] = Pharmacokinetic Studies in Dogs - In Vivo Dog PK; design: species or system beagle dogs; settings: dog PBMCs at 24 h following a 10 mg/kg P.O. dose of the prodrug
Experimental: Pharmacokinetic Studies in Dogs—In Vivo Dog PK
Prodrugs were administered to beagle dogs through intravenous (IV) and oral (P.O.) administrations in a non-crossover manner. The IV dose was prepared in 20% hydroxypropyl β-cyclodextrin (HPBCD) or polyethylene glycol 200:ethanol:water (70:10:20 v/v/v). The dose was administered via cephalic or saphenous vein. The P.O. dose was prepared in 10% polysorbate 80 (Tween 80) and was administered via gavage.
Blood samples were serially collected following dose administration for up to 48 hr and plasma was separated by centrifugation. The concentrations of prodrugs in dog plasma were determined by a LC-MS/MS assay following a protein precipitation step and addition of an appropriate internal standard (labetalol, imipramine or diclofenac). Quantification was done by determining peak area-ratios of the prodrugs and tenofovir to the internal standard. Additional blood sample(s) was collected following dose administration for up to 24 hr. […] The concentrations of tenofovir and/or its phosphate conjugate(s) in PBMCs were determined by an LC-MS/MS assay following a protein precipitation step and addition of an appropriate internal standard (labetalol, imipramine or diclofenac). Quantification was done by determining peak area-ratios of tenofovir and/or its phosphate conjugate(s) to the internal standard.
Pharmacokinetic parameters were obtained using non-compartmental methods (Watson®). The area under the plasma concentration-time curve (AUC0-t) was calculated from the first time point (0 min) up to the last time point with measurable drug concentration using the linear trapezoidal or linear/log-linear trapezoidal rule. The IV plasma clearance was calculated by dividing the dose by AUC0-inf. The terminal half-life of elimination was determined by unweighted linear regression analysis of the log-transformed data. […] The volume of distribution at steady state (Vdss) was obtained from the product of plasma clearance and mean residence time (determined by dividing the area under the first moment curve by the area under the curve). […]

[3] = MT4-GFP cells infected with HIV-1, 10% normal human serum, read-out: Viking, IC50 (10% NHS)
[4] = MT4-GFP cells infected with HIV-1, 50% normal human serum, read-out: Viking, IC50 (50% NHS)

CCCOC(=O)C(C)(C)N[P@@](=O)(CO[C@H](C)Cn1cnc2c(N)ncnc21)N[C@H](c1ccc(OC(F)(F)F)cc1)C(F)(F)F (single isomer, unassigned) [Example 27A]
IC50 (HIV-1 (H9/IIB strain); [3]): 1.4 nM | IC50 (HIV-1 (H9/IIB strain); [4]): 6.7 nM | GI Tract stability (%) [1]: 79.5% | In Vivo Dog PK (μM): TFV-DP concentrations in dog PBMCs [2]: 0.8 µM

CCCOC(=O)C(C)(C)NP(=O)(CO[C@H](C)Cn1cnc2c(N)ncnc21)N[C@@H](C)c1ccc(Cl)cc1 (stereo partly drawn) [Example 13A, propyl 2-(((R)-((((R)-1-(6-amino-9H-purin-9-yl)propan-2-yl)oxy)methyl)(((S)-1-(4-chlorophenyl)ethyl)amino)phosphoryl)ami-no)-2-methylpropanoate and propyl 2-(((S)-((((R)-1-(6-amino-9H-purin-9-yl)propan-2-yl)oxy)methyl)(((S)-1-(4-chlorophenyl)ethyl)amino)phosphoryl)ami-no)-2-methylpropanoate]
IC50 (HIV-1 (H9/IIB strain); [3]): 8.4 nM | IC50 (HIV-1 (H9/IIB strain); [4]): 75 nM | GI Tract stability (%) [1]: 98.5% | In Vivo Dog PK (μM): TFV-DP concentrations in dog PBMCs [2]: 15.9 µM

propyl 2-(((R)-((((R)-1-(6-amino-9H-purin- 9-yl)propan-2-yl)oxy)methyl)((4- isopropylbenzyl)amino)phosphoryl)amino)- 2-methylpropanoate and propyl 2-(((S)-((((R)-1-(6-amino-9H-purin- 9-yl)propan-2-yl)oxy)methyl)((4- isopropylbenzyl)amino)phosphoryl)amino)- 2-methylpropanoate [Example 5A]
IC50 (HIV-1 (H9/IIB strain); [3]): 3.1 nM | IC50 (HIV-1 (H9/IIB strain); [4]): 17 nM | GI Tract stability (%) [1]: 96.3% | In Vivo Dog PK (μM): TFV-DP concentrations in dog PBMCs [2]: 7.7 µM
